Here are results for ten compounds from patent US20180008587A1, “THIOHYDANTOIN ANDROGEN RECEPTOR ANTAGONISTS FOR THE TREATMENT OF CANCER” (Jaressen Pharmaceutica NV, priority 2016, published 2018).

Assay type in all cases: cell-based
The target in experiment [1] is T1, wild-type Androgen Receptor (AR-wt) (Homo sapiens, UniProt P10275).
T1 construct: expressed in transfected cells; host or cells: LNCaP (LNCaP AR (cs))
T1 sequence (P10275 1-920): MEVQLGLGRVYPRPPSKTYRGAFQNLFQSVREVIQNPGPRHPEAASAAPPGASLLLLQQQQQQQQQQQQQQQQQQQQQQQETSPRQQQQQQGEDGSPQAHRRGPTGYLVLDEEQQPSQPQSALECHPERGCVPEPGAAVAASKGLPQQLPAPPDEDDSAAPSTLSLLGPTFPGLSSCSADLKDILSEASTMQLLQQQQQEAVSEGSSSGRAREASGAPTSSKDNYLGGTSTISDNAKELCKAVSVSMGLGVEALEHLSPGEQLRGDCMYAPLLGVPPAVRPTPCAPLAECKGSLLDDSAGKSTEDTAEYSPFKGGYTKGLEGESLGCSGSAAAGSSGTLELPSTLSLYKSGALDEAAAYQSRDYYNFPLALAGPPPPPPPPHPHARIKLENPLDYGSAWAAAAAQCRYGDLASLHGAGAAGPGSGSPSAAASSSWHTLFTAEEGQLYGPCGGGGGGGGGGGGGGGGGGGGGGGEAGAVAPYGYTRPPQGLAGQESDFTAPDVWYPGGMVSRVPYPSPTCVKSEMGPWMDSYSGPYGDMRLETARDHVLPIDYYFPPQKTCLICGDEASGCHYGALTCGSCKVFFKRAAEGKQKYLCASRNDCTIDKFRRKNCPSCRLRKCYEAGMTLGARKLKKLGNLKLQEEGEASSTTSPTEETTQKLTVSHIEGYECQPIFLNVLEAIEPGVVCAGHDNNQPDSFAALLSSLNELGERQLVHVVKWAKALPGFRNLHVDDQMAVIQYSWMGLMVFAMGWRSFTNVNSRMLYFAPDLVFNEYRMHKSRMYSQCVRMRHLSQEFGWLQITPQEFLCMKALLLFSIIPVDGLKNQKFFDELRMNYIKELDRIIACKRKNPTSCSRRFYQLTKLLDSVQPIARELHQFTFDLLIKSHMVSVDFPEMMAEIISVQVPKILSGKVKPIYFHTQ
The experiment in a line: LNCaP-AR-wt ANT reporter assay (ARE firefly luciferase, antagonist mode). The settings on record: for IC50: antagonist mode, 400 pM R-1881 challenge, −Log10(IC50 [Molar]), read-out: LNCaP-AR-wt ANT pIC50 (converted); for Emax: maximum % inhibition of R1881 control response over tested concentration range, read-out: LNCaP-AR-wt ANT MAX % Inh. In a few lines:
(§1)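 Puromycin-selected pooled LNCaP populations expressing AR-wt or AR-F876L are seeded in CSS medium and treated with compound for 20-24 h at 37 °C. For antagonist testing, agonist is added at 400 pM (WT) or 600 pM (F876L). Potency values derive from least-squares fitting of luminescence RLU.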

The target of experiment [2] is T2, F876L mutant Androgen Receptor (AR-F876L) (Homo sapiens, UniProt P10275, F877L).
T2 construct: expressed in transfected cells; host or cells: LNCaP (LNCaP F876L)
T2 sequence (P10275 1-920 F877L): T1 sequence (P10275 1-920) with F877L
The experiment in a line: LNCaP-AR-F876L AG reporter assay (ARE firefly luciferase, agonist mode). The settings on record: for EC50: agonist mode, −Log10(EC50 [Molar]), read-out: LNCaP-AR-F876L AG pEC50 (converted); for Emax: read-out: LNCaP-AR-F876L AG MAX % Stim. In a few lines:
(§2)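 LNCaP stable pooled lines expressing ARE-firefly luciferase, in charcoal-stripped serum medium, were exposed to compounds; antagonist mode used agonist at 400 pM (WT) or 600 pM (F876L).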

Experiment [3] has as its target T1, wild-type Androgen Receptor (AR-wt). The experiment in a line: LNCaP-AR-wt AG reporter assay (ARE firefly luciferase, agonist mode). The settings on record: for EC50: agonist mode, −Log10(EC50 [Molar]), read-out: LNCaP-AR-wt AG pEC50 (converted); for Emax: read-out: LNCaP-AR-wt AG MAX % Stim. In a few lines: as §2
Experiment [4] addresses T2, F876L mutant Androgen Receptor (AR-F876L). Kind of experiment: LNCaP-AR-F876L ANT reporter assay (ARE firefly luciferase, antagonist mode). The settings on record: for Emax: maximum % inhibition of R1881 control response over tested concentration range, read-out: LNCaP-AR-F876L ANT MAX % Inh; for IC50: read-out: LNCaP-AR-F876L ANT pIC50 (converted). In a few lines: as §1

Where [5] appears, read: maximum % stimulation (agonist response) over tested concentration range.

SMILES strings stand for the structures. Numbering of substitutions follows the chain as printed.

Turning to `N#Cc1ncc(N2C(=O)C3(CCC3)N(c3cccc(OC(F)(F)F)c3)C2=S)cc1C(F)(F)F` [Cpd 97, 5-[5-oxo-7-thioxo-8-[3-(trifluoromethoxy)phenyl]-6,8-diazaspiro[3.4]octan-6-yl]-3-(trifluoromethyl)pyridine-2-carbonitrile], the IC50 in experiment [1] was 912 nM; in experiment [4], 676 nM. The Emax in experiment [1] came to 100%; in experiment [2], 1.6%; in experiment [3], 0.7%; in experiment [4], 99.6%. In addition, the EC50 in experiment [2] and in experiment [3] was greater than 15100 nM in each case.
For `CCOC(=O)CNC(=O)c1ccc(N2C(=S)N(c3cnc(C#N)c(C(F)(F)F)c3)C(=O)C23CCC3)cc1F` [Cpd 41, ethyl 2-[[4-[6-[6-cyano-5-(trifluoromethyl)-3-pyridyl]-5-oxo-7-thioxo-6,8-diazaspiro[3.4]octan-8-yl]-2-fluoro-benzoyl]amino]acetate], the results for the IC50 in experiment [1] and in experiment [4] were 282 nM and 186 nM, respectively. Moreover, the Emax in experiment [1] is 102%; in experiment [2] (setting [5]), 0.3%; in experiment [3] (setting [5]), -0.2%; in experiment [4], 102%. For the same compound, the EC50 in experiment [2] and in experiment [3] was greater than 15100 nM each time.
As for `Cc1cc(N2C(=O)C3(CCC3)N(c3ccc(OC4CCS(=O)(=O)CC4)cc3)C2=S)cnc1C#N` [Cpd 6, 5-[8-[4-(1,1-dioxothian-4-yl)oxyphenyl]-5-oxo-7-thioxo-6,8-diazaspiro[3.4]octan-6-yl]-3-methyl-pyridine-2-carbonitrile], the IC50 was 646 nM in experiment [1] and 178 nM in experiment [4]. The Emax was determined as 100% in experiment [1], 0% in experiment [2] (setting [5]), 0.4% in experiment [3] (setting [5]) and 99.5% in experiment [4]. Also, the EC50 in experiment [2] and in experiment [3] was greater than 15100 nM each time.
On to `Cc1cc(N2C(=O)C3(CCC3)N(c3ccc(C(=O)NCc4cccs4)c(F)c3)C2=S)cnc1C#N` [Cpd 33, 4-[6-(6-cyano-5-methyl-3-pyridyl)-5-oxo-7-thioxo-6,8-diazaspiro[3.4]octan-8-yl]-2-fluoro-N-(2-thienylmethyl)benzamide], for which the IC50 is 1230 nM in experiment [1] and 490 nM in experiment [4]. Further, the Emax in experiment [1] is 99.6%; in experiment [2] (setting [5]), 0.3%; in experiment [3] (setting [5]) it was 0.3%; in experiment [4] it was 100%. For the same compound, the EC50 in experiment [2] and in experiment [3] was greater than 15100 nM each time.
For `Cc1cc(N2C(=O)C3(CCC3)N(c3ccc(OC4CCNCC4)cc3)C2=S)cnc1C#N` [Cpd 83, 3-methyl-5-[5-oxo-8-[4-(4-piperidyloxy)phenyl]-7-thioxo-6,8-diazaspiro[3.4]octan-6-yl]pyridine-2-carbonitrile], the IC50 in experiment [1] was 2240 nM; in experiment [4], 1000 nM. Further, the Emax worked out at 98.8% in experiment [1], 0.5% in experiment [2] (setting [5]), 0.1% in experiment [3] (setting [5]) and 99.5% in experiment [4]. Moreover, the EC50 in experiment [2] and in experiment [3] was greater than 15100 nM throughout.
On to `N#Cc1ncc(N2C(=O)C3(CCC3)N(c3ccc(C(=O)NCc4ccco4)c(F)c3)C2=S)cc1C(F)(F)F` [Cpd 76, 4-[6-[6-cyano-5-(trifluoromethyl)-3-pyridyl]-5-oxo-7-thioxo-6,8-diazaspiro[3.4]octan-8-yl]-2-fluoro-N-(2-furylmethyl)benzamide], for which the values for the IC50 in experiment [1] and in experiment [4] were 1450 nM and 851 nM, respectively. The Emax in experiment [1] turned out to be 97.8%; in experiment [2] (setting [5]), 1%; in experiment [3] (setting [5]), 1.9%; in experiment [4], 91.6%. For the same compound, the EC50 in experiment [2] and in experiment [3] was greater than 15100 nM throughout.
Consider `Cc1ccc(-c2ccc(N3C(=S)N(c4cnc(C#N)c(C)c4)C(=O)C34CCC4)cc2)o1` [Cpd 50, 3-methyl-5-[8-[4-(5-methyl-2-furyl)phenyl]-5-oxo-7-thioxo-6,8-diazaspiro[3.4]octan-6-yl]pyridine-2-carbonitrile], for which the figures for the IC50 in experiment [1] and in experiment [4] were 363 nM and 282 nM, respectively. Further, the Emax is 98% in experiment [1], 0.2% in experiment [2], 0.7% in experiment [3] and 98.2% in experiment [4]. In addition, the EC50 in experiment [2] and in experiment [3] was greater than 15100 nM each time.
For `N#Cc1ncc(N2C(=O)C3(CCC3)N(c3ccc(C(=O)NCCc4cccnc4)c(F)c3)C2=S)cc1C(F)(F)F` [Cpd 96, 4-[6-[6-cyano-5-(trifluoromethyl)-3-pyridyl]-5-oxo-7-thioxo-6,8-diazaspiro[3.4]octan-8-yl]-2-fluoro-N-[2-(3-pyridyl)ethyl]benzamide], the IC50 in experiment [1] is 407 nM; in experiment [4], 347 nM. Also, the Emax in experiment [1] turned out to be 101%; in experiment [2] (setting [5]) it was 0.8%; in experiment [3] (setting [5]), 1.5%; in experiment [4], 100%. The EC50 in experiment [2] and in experiment [3] was greater than 15100 nM in each case.
For `Cc1cc(N2C(=O)C3(CCC3)N(c3ccc(C(=O)Nc4cncc(F)c4)c(F)c3)C2=S)cnc1C#N` [Cpd 113, 4-[6-(6-cyano-5-methyl-3-pyridyl)-5-oxo-7-thioxo-6,8-diazaspiro[3.4]octan-8-yl]-2-fluoro-N-(5-fluoro-3-pyridyl)benzamide], the IC50 was 1170 nM in experiment [1] and 871 nM in experiment [4]. Moreover, the Emax in experiment [1] is 97.4%; in experiment [2] (setting [5]), 3.1%; in experiment [3] (setting [5]), 25.3%; in experiment [4], 98.2%. In addition, the EC50 in experiment [2] and in experiment [3] was greater than 15100 nM in each case.
With `CNC(=O)c1ccc(N2C(=S)N(c3cnc(C#N)c(C)c3)C(=O)C23CCC3)cc1C` [Cpd 5, 4-[6-(6-cyano-5-methyl-3-pyridyl)-5-oxo-7-thioxo-6,8-diazaspiro[3.4]octan-8-yl]-N,2-dimethyl-benzamide], the IC50 is 977 nM in experiment [1] and 417 nM in experiment [4]. In addition, the Emax in experiment [1] was 101%; in experiment [2] (setting [5]), -0.1%; in experiment [3] (setting [5]), 0.7%; in experiment [4] it was 98.3%. Further, the EC50 in experiment [2] and in experiment [3] was greater than 15100 nM in each case.
